Source: paper PMC10080078, “Use of phage display biopanning as a tool to design CAR-T cells against glioma stem cells” (Frontiers in Oncology, 2023)
Where “and” joins values, the source holds several entries; their conditions need not be identical. Equal values may be shown once. Where no end group is shown, it is not given here.

Assays:
N-cadherin [1] = test: Immunoblot of peptide pull-down; type: binding; conditions: biotinylated peptide 40 μg on streptavidin agarose
Method: Cells were lysed using the IP Lysis Buffer Protocol (Pierce, Waltham, MA) as described by the manufacturer. Biotinylated peptides (EV-b and NT-b, 40 μg) were incubated with 100 μL of streptavidin agarose resin at 4°C for 1 hour on a rotator to generate the peptide-coupled streptavidin agarose resin. The protein samples were pre-cleared by incubation of 50 μL of NT-streptavidin agarose resins (4°C on rotator for 1 hour). After centrifugation, the pre-cleared samples were incubated with 150 μL of EV-coupled streptavidin agarose resin at 4°C overnight on rotator. After PBS wash, the resin was pelleted and sent for mass spectrometry analysis (see details in Supplementary Methods ) or eluted with 4x Laemmli Sample Buffer (Bio-Rad, Hercules, CA) containing 1X DTT reducing agent (dithiothreitol, Cell Signaling Technology, Danvers, MA) and boiled for SDS-PAGE. Pulled-down proteins were then separated with a Novex™ WedgeWell™ (ThermoFisher Scientific, Waltham, MA) and transferred to polyvinylidene fluoride (PVDF) membranes (Millipore, Burlington, MA). Membrane-transferred proteins were immunoblotted with an antibody recognizing N-cadherin (1/10000, NBP2-01498, Novus Biologicals, Littleton, CO) ( Supplemental Figure 2 ).

[2] = target: T1, N-cadherin extracellular domain, amino acids 160-724 (Homo sapiens, UniProt P19022); test: Surface plasmon resonance, single cycle kinetics (Biacore T200); type: binding
T1 construct: Recombinant Human N-Cadherin extracellular domain, amino acids 160-724; purchased R&D Systems 1388NC050
T1 sequence (P19022 160-724): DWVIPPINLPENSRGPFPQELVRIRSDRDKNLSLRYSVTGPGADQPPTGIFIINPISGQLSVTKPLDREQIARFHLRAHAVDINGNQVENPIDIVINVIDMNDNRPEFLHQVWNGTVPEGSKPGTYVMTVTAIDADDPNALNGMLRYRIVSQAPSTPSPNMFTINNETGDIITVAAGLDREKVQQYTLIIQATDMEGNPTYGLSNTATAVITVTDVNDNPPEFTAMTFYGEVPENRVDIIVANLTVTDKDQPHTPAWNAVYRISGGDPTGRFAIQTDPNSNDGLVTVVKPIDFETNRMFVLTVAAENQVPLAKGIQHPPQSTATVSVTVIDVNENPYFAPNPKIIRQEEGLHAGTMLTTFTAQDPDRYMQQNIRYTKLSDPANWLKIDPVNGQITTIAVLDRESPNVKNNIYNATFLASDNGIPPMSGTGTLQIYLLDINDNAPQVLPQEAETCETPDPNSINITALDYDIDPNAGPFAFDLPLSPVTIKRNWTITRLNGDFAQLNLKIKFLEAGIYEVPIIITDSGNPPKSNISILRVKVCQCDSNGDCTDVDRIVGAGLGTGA
Method: The direct binding measurements between N-cadherin and EV peptide by surface plasmon resonance was performed by immobilizing N-cadherin protein (Recombinant Human N-Cadherin extracellular domain, amino acids 160-724, 1388NC050, R&D Systems, Minneapolis, MN) to a CM5 sensor chip surface docked in Biacore T200 (Cytiva, Marlborough, MA) at 25°C using an amine-coupling method. Prior to immobilization, the chip was primed and equilibrated with a running buffer containing 20 mM HEPES, pH 7.4, 1 mM TCEP, 2 mM CaCl2 and 150 mM NaCl at a flow rate of 10 µL/min. The carboxymethyl surface of the CM5 chip was manually activated for 7 minutes using a 1:1 ratio of 0.4 M 1-ethyl-3-(3-[…]) carbodiimide hydrochloride (EDC) and 0.1 M N-hydroxysuccinimide (NHS) to achieve a density of about 10,000 RU per flow cell. N-cadherin protein stock (1.12 µM) was diluted to 100 nM in 10 mM sodium acetate, pH 4.5, and manually injected over the surface at the same flow rate. […]
For kinetic titration experiments, the same running buffer was used except with the inclusion of 5% DMSO. […] Sensorgrams were solvent corrected, buffer referenced, and the on-rate, off-rate, and equilibrium binding constants were calculated from the sensorgrams by global fitting of a 1:1 binding model, using analysis software (version 3.0) provided with Biacore T200 instrument (Cytiva).

GSCs = conditions: ref ([22], [23]), cited from earlier work; for targeting of GSCs in vitro: previously demonstrated
Method: We have previously isolated glioblastoma stem cell targeting peptides through a combination of in vitro and in vivo biopanning strategies ([22], [23]). In vitro biopanning was performed by screening a random 7 amino acid phage peptide library against differentiated stem cells and glioblastoma stem cells grown in culture to isolate GSC-specific targeting peptides ( Figure 1A ). Two types of in vivo biopanning were performed, one against mice with intracranial GBM xenografts ( Figure 1B ) and one with subcutaneous flank xenografts ( Figure 1C ). Two peptides were selected for use in subsequent e ... || Figure 1 Peptide selection. Schematic representation of phage display strategies used to isolate the GSC-targeting peptides E (AWEFYFP) and V (SSQPFWS). […] Authors’ elaboration based on prior data from ([22], [23]).

[3] = test system: subcutaneous flank GBM xenografts; conditions: ref ([22], [23]); cited from earlier work
Excerpt: (§1) Figure 1 Peptide selection. Schematic representation of phage display strategies used to isolate the GSC-targeting peptides E (AWEFYFP) and V (SSQPFWS). […] Authors’ elaboration based on prior data from ([22], [23]).

[4] = test system: intracranial GBM xenografts; conditions: ref ([22], [23]); cited from earlier work
Excerpt: as §1

N-cadherin [5] = conditions: by itself; ref manuscript under review; cited from earlier work
Excerpt: Our study has illustrated the utility and feasibility of designing novel antigen-binding domains for CAR-T cells by using two short peptides of just seven amino acids each to induce functional recognition of GSCs.

[6] = target: T2, Recombinant Human N-Cadherin extracellular domain, amino acids 160-724 (human, UniProt P19022 160-724); test: SPR; N-cadherin amine-coupled to CM5 chip (about 3500 RU), Biacore T200, 25°C; 20 mM HEPES pH 7.4, 1 mM TCEP, 2 mM CaCl2, 150 mM NaCl, 5% DMSO; single cycle kinetics, peptide 2 to 167 µM; 1:1 binding model; conditions: both partners purified
T2 construct: N-cadherin (CDH2), human, extracellular domain, amino acids 160-724; also called recombinant N-cadherin; recombinant extracellular N-cadherin protein; source: bought: R&D Systems
T2 sequence (looked up): T1 sequence (P19022 160-724)

[7] = target: T2, Recombinant Human N-Cadherin …; test: ELISA; plates coated with 2.5 μg/mL recombinant N-cadherin; biotinylated peptides at different concentrations in PBS-2%-BSA, 1 hour at RT; streptavidin-HRP; conditions: both partners purified

Question: With “FAYPEWFGGGGSGGGGSGGGGSPSWSFSQ [NT, reference compound]” as the molecule, how does the “N-cadherin antibody signal in peptide pull-down immunoblot” value (N-cadherin [1]) read?
Answer: absent

Question: What about the “SPR response / KD of NT peptide” value ([2]; identical condition, NT peptide in SPR is GGGSGGG, could not be fitted for reliable extraction of the KD) of the same molecule?
Answer: did not exhibit significant resonance units

Question: With “SSQPFWS [V, isolated from the subcutaneous flank biopanning]” as the molecule, how does the “targeting of GSCs in vitro” value (GSCs) read?
Answer: specificity for targeting GSCs in vitro

Question: What about the “enrichment in in vivo biopanning on subcutaneous tumors” value [3] of the same molecule?
Answer: one of the most enriched

Question: Which kon ([2]; CM5 chip, 25°C, 20 mM HEPES pH 7.4, 1 mM TCEP, 2 mM CaCl2, 150 mM NaCl, 5% DMSO, EV 2 to 167 µM, 1:1 model, first run, read-out: on-rate (ka)) does the source give for AWEFYFPGGGGSGGGGSGGGGSSSQPFWS [EV] here?
Answer: 2620 M⁻¹ s⁻¹

Question: Which results are given for “AWEFYFP [isolated from both the in vitro and intracranial in vivo biopanning]”?
Answer: targeting of GSCs in vitro (GSCs): specificity for targeting GSCs in vitro; enrichment in in vitro biopanning (GSCs): one of the most enriched; enrichment in in vivo biopanning, intracranial [4]: one of the most enriched; binding of single peptide E to N-cadherin (N-cadherin [5]): positive binding to N-cadherin

B1: EV peptide as used in surface plasmon resonance (peptide)
peptide: AWEFYFPGGGGSGGGGSGGGGSSSQPFWS
notes: dual peptide EV; the SPR methods say only 'EV peptide'; source: synthetic peptide
Question: Which Kd [6] does the source give for B1 here?
Answer: 9.4 µM and 8.45 µM and 7.5 µM

Question: And the koff [6]?
Answer: 0.0196 s⁻¹

B2: biotinylated dual peptide EV (EV-b) (peptide)
peptide: AWEFYFPGGGGSGGGGSGGGGSSSQPFWS
modifications: also: biotin conjugated, position not given here
notes: 29 amino acids; also called EV-biotinylated peptide; source: synthetic peptide (LifeTein)
Question: Does B2 bind [7]?
Answer: binds
